Measurements taken from patent US10940139B2, “Compounds that interact with the Ras superfamily for the treatment of cancers, inflammatory diseases, rasopathies, and fibrotic disease” (Shy Therapeutics LLC, priority 2017, dated 2021).

System: MIA-PACA2 pancreatic cancer cell lines
Assay: Cell proliferation assay, alternate assay conditions (DAPI fluorescence)
Type: cell-based
Conditions: Homo sapiens, MIA PaCa-2; * = tested at 10 μM, alternate conditions, MIA-PACA2
Procedure: Cell lines: Tumor-derived pancreatic cancer cell lines MIA-PACA2 were purchased from ATCC and grown in complete DMEM-High Glucose medium supplemented with penicillin (100 U/mL), streptomycin (100 μg/mL), and 10% heat-inactivated FBS at 37° C. in a humidified incubator with 5% CO2.
Method: Cells are plated at 4000 cells/well density in 96-wells plate. The next day tested small molecules are added to the cells in the final concentration of 10 μM in the presence of 0.3% DMSO and 10% FBS. After small molecules addition, cells are incubated for 4 days at 37° C. in a humidified incubator with 5% CO2. For IC50 value determination, serial dilutions of compounds were added to cells under the same conditions.
Assay: At the end of the incubation period, cell cultures are fixed with a 50-50 mixture (v/v) acetone-methanol for 10 minutes at −20° C., followed by rehydration in PBS for 10 minutes at room temperature. After rehydration, cells are stained with DAPI (1 μg/ml) in PBS for 10 minutes at room temperature, followed by 3 washes with PBS. After staining, DAPI fluorescence is recorded (358 nm excitation/461 nm emission) with the 96-well plate reader Molecular Devices Spectramax M3; degree of small mole-cule-dependent proliferation inhibition is calculated from raw data assuming No Serum cells value as 100%.

COc1nc(-c2ccccn2)nc2c(-c3cccc(O)n3)csc12
inhibition at 10 µM: 76 to 100%

CCC(C)Nc1nc(-c2ccccn2)nc2sc(-c3ccncc3)c(-c3ccccc3)c12 (centres unmarked)
inhibition at 10 µM: 51 to 75%

O=C(NCCc1ccncn1)c1csc2nc(-c3ccccn3)nc(N3CCOCC3)c12 [drawing 1796]
inhibition at 10 µM: 1 to 25%

CC(C)c1nn(C)cc1-c1csc2c(O)nc(-c3ccccn3)nc12 [drawing 1797]
inhibition at 10 µM: 76 to 100%

CN(C)CCOc1cccc(-c2csc3c(O)nc(-c4ccccn4)nc23)c1 [drawing 1798]
inhibition at 10 µM: 76 to 100%

Oc1nc(-c2ccccn2)nc2c(-c3cc(CN4CCCC4)ccc3F)csc12 [drawing 1799]
inhibition at 10 µM: 76 to 100%

N#Cc1cccc(-c2csc3c(O)nc(-c4ccccn4)nc23)c1 [drawing 1800]
inhibition at 10 µM: 76 to 100%

Oc1nc(-c2ccccn2)nc2c(-c3cncnc3)csc12 [drawing 1801]
inhibition at 10 µM: 0%

Cc1c(-c2csc3c(O)nc(-c4ccccn4)nc23)cnn1C [drawing 1802]
inhibition at 10 µM: 76 to 100%

Cc1nn(C(C)C)cc1-c1csc2c(O)nc(-c3ccccn3)nc12 [drawing 1803]
inhibition at 10 µM: 76 to 100%

Oc1nc(-c2ccccn2)nc2c(-c3cncc(C(F)F)c3)csc12 [drawing 1804]
inhibition at 10 µM: 76 to 100%

COc1ccc(CCC(=O)Nc2nc(-c3ccccn3)nc3sccc23)cn1 [drawing 1805]
inhibition at 10 µM: 76 to 100%

Cc1sc2c(O)nc(-c3ccccn3)nc2c1-c1ccncc1 [drawing 1806]
inhibition at 10 µM: 76 to 100%

Cc1sc2c(O)nc(-c3ccccn3)nc2c1C(=O)N1CCN(c2ccccc2)CC1 [drawing 1807]
inhibition at 10 µM: 76 to 100%

Cc1sc2c(O)nc(-c3ccccn3)nc2c1C(=O)N1CCN(c2ccccc2)CC1C (centres unmarked) [drawing 1808]
inhibition at 10 µM: 76 to 100%

Cc1sc2c(O)nc(-c3ccccn3)nc2c1C(=O)N1CCN(Cc2cccc(O)c2)CC1 [drawing 1809]
inhibition at 10 µM: 25 to 50%

COC(=O)c1c(C)sc2c(O)nc(-c3ccccn3)nc12 [drawing 1810]
inhibition at 10 µM: 25 to 50%

Oc1nc(-c2ccccn2)nc2c(C3CCCCC3)csc12 [drawing 1811]
inhibition at 10 µM: 76 to 100%

Oc1nc(-c2ccccn2)nc2c(C3CCCC3)csc12 [drawing 1812]
inhibition at 10 µM: 76 to 100%

CC(C)Cc1csc2c(O)nc(-c3ccccn3)nc12 [drawing 1813]
inhibition at 10 µM: 76 to 100%

COc1cnc(-c2cn(C)cn2)nc1O [drawing 1814]
inhibition at 10 µM: 1 to 25%

COc1cnc(-c2nccn2C)nc1O [drawing 1815]
inhibition at 10 µM: 51 to 75%

Nc1cccc(-c2csc3c(O)nc(-c4ccccn4)nc23)n1 [drawing 1816]
inhibition at 10 µM: 76 to 100%

Cc1sc2c(O)nc(-c3ccccn3)nc2c1-c1ccccc1Cl [drawing 1817]
inhibition at 10 µM: 76 to 100%

COc1cnc(-c2cnc[nH]2)nc1O [drawing 1818]
inhibition at 10 µM: 0%

COc1cnc(CNC(=O)c2csc3nc(-c4ccccn4)nc(N)c23)[nH]c1=O [drawing 1819]
inhibition at 10 µM: 0%
